Laboratory results reported in paper PMC9376960, “Ruthenium(II)–Tris-pyrazolylmethane Complexes Inhibit Cancer Cell Growth by Disrupting Mitochondrial Calcium Homeostasis” (Journal of Medicinal Chemistry, 2022).

Experiments:
[1] = pH of aqueous solution over time; assay type: physicochemical; settings: 10^–3 M H2O solution
Procedure: Reactants and solvents were purchased from Alfa Aesar, Merck, Strem, or TCI Chemicals and were of the highest purity available. Tris(1-pyrazolyl)methane (tpm) was prepared according to the published procedure.[105] Reactions were conducted under a N2 atmosphere using standard Schlenk techniques, and all products were stored in air once isolated. All compounds are >95% pure by elemental analysis. Solvents were used as received unless otherwise stated. Toluene and diethyl ether were dried with the solvent purification system mBraun MB SPS5, while methanol was distilled from calcium hydride and isopropanol from magnesium. IR spectra of solid samples were recorded on an Agilent Cary630 FTIR spectrometer. IR spectra were processed with Spectragryph software.[106] NMR spectra were recorded at 298 K on a JEOL JNM-ECZ500R instrument equipped with a Royal HFX Broadband probe. Chemical shifts (expressed in parts per million) are referenced to the residual solvent peaks (^1H, ^13C)[107] or external standard (^31P to H3PO4). ^1H and ^13C{^1H} NMR spectra were assigned with the assistance of ^1H–^13C (gs-HSQC and gs-HMBC) correlation experiments.[108] Elemental analyses were performed on a Vario MICRO cube instrument (Elementar). Conductivity measurements were performed at 25 °C using an XS COND 8 instrument (cell constant = 1.0 cm^–1).[109],[110] pH measurements were performed with an Orion pH meter equipped with a Hamilton glass pH electrode. ESI-Q/ToF flow injection analysis was carried out using a 1200 Infinity HPLC (Agilent Technologies), coupled to a Jet Stream ESI interface (Agilent) with a Quadrupole-Time-of-Flight tandem mass spectrometer 6530 Infinity Q-TOF (Agilent Technologies).

[2] = Octanol/water partition coefficient, shake-flask, UV-vis; assay type: physicochemical
Procedure: Partition coefficients (Pow); IUPAC: […] A stock solution of the selected ruthenium compound (ca. 2 mg) was prepared by first adding MeOH (50 μL, to help solubilization), followed by octanol-saturated water (2.5 mL). The solution was diluted with octanol-saturated water (ca. 1:3 v/v ratio, cRu ≈ 10^-4 M, so that 1.5 ≤ A ≤ 2.0 at λmax), and its UV-vis spectrum was recorded (Aaq^0). An aliquot of the solution (Vaq = 1.2 mL) was transferred into a test tube, and water-saturated octanol (Vorg = Vaq = 1.2 mL) was added. […] The UV-vis spectrum of the aqueous phase was recorded (Aaq^f), and the partition coefficient was calculated as Pow = ([…], where […] are the absorbances in the aqueous phase before and after partition with the organic phase, respectively.[118] For 1, an inverse procedure was followed, starting from a solution of the compound in water-saturated octanol. The partition coefficient was calculated as Pow = Aorg^f/(Aorg^0 - Aorg^f), where Aorg^0 and Aorg^f are the absorbances in the organic phase before and after partition with the aqueous phase, respectively. The wavelength of the maximum absorption of each compound (280-380 nm range) was used for UV-vis quantitation. The procedure was repeated three times for each sample (from the same stock solution); the results are given as mean ± standard deviation (Table 2).

MMC-2 = test: MTT assay, NER-deficient cells; assay type: cell-based, Chinese hamster; settings: 72 h
Source text: The human cervical carcinoma HeLa cells and human colorectal carcinoma cells HCT116 were kindly supplied by Professor B. Keppler, University of Vienna (Austria). Human rhabdomyosarcoma RD cells were purchased from the American Type Culture Collection (ATCC, Manassas, VA). Human breast cancer MCF-7 cells, human skin melanoma 518A2 cells, and human MRC5pd30 cells derived from normal lung tissue were purchased from the European Collection of Authenticated Cell Cultures (ECACC) (Salisbury, U.K.). Chinese hamster ovary CHO-K1 cell line (wild type) and its derivative MMC-2 carrying the ERCC3/XPB mutation (NER-deficient) cell line were kindly supplied by Dr. […], Cancer Research Institute, Slovak Academy of Sciences, Bratislava (Slovakia). In vitro antiproliferative activity of Ru complexes was determined by the MTT or, alternatively, SRB assay as already described,[84] after 72 h of incubation of cells with various concentrations of the Ru complex. The reported IC50 values are an average of three independent experiments, each consisting of three replicates per concentration.

Substance	log Pow [2]	IC50 (MMC-2) [µM]	also measured
[RuCl(κ^3-tpm)(PPh3){NCHN(Me)(CH)2}]Cl [compound 3]	–0.15 ± 0.03		pH(24h) ([1]; 24 h): 6.66; pH(48h) ([1]; 48 h): 6.36; pH(t0) ([1]; t0): 6.78
[RuCl(κ^3-tpm)(PPh3)2]Cl [compound 1]		7.7 ± 0.2	
[RuCl(κ^3-tpm)(PPh3){P(OMe)3}]Cl [compound 7]		33 ± 2	
[RuCl(κ^3-tpm)(PPh3)(CNCy)]Cl [compound 8]		16 ± 3	
[RuCl(κ^3-tpm)(PPh3){CNCH2P(O)(OEt2)2}]Cl [compound 9]	–0.20 ± 0.05		
